Laboratory results reported in paper PMC11555678, “Improved Broad Spectrum Antifungal Drug Synergies with Cryptomycin, a Cdc50-Inspired Antifungal Peptide” (ACS Infectious Diseases, 2024).
≈ marks a conversion by molar mass, not a printed value. Read-outs that look alike come from different tables or passages of the source.

Experiments:
Cg FKS2 S663P = assay: Drug synergy (MIC in peptide-supplemented media); type: cell-based, Candida glabrata; details: RPMI1640, 37 °C, 48 h
Procedure: (§1) All microdilution assays with fungi were carried out in accordance with CLSI protocols from M27 for yeasts and M38 for filamentous fungi, respectively, unless otherwise specified.[64],[65] Briefly, 96-well plates were charged with RPMI1640 media, with operating volume in the first column, 200 μL, and half operating volume, 100 μL, in the remaining wells. Drug stock solution in DMSO was aliquoted into the first well in each row. Half of the volume in the dosed well was serially diluted 2-fold until column 11. Column 11 was used as the negative growth control, and column 12 was used as the positive growth control. ON yeast cultures in YPD were washed twice in DD-H2O, resuspended in PBS, and adjusted to 5000 cfu/mL in RPMI. The 96-well plate was inoculated with 100 μL aliquots of cell suspension per well. Plates were incubated at 37 °C for 2 days.
(§2) To assess drug synergy, the initial media charged to the plate contained the peptide at twice the final operating concentration; the remaining processing steps were identical to the MIC experiment. Upon addition of 100 μL of inoculant, the final operating concentration was achieved. Control MIC plates were prepared alongside drug synergy plates to account for the day-to-day variability in any individual MIC. FIC index is computed using eq 1. All MIC assays and drug synergy assays were completed with two technical replicates per 96-well plate and a minimum of two biological replicates per drug combination. If a difference in MIC between the two technical replicates on the plate were observed, only the higher concentration was reported as the MIC to reduce the possibility of type 1 error (false positive) [drawing 1] 1

C. albicans SC5413 = assay: microbe, parasite or virus in culture; type: cell-based, Candida albicans; details: Candida albicans, SC5413; compound alone; RPMI1640, 37 °C, 48 h; read-out: MIC
In short: (§3)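 Yeasts were grown overnight in YPD, washed twice in water, taken up in PBS and diluted to 5000 cfu/mL in RPMI. They were then added to plates holding 2-fold serial drug dilutions in RPMI1640 and incubated at 37 °C for 2 days.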

A. fumigatus AF293 [1] = assay: Drug synergy (MIC in peptide-supplemented media); type: cell-based, Aspergillus fumigatus; details: RPMI1640, 37 °C, 48 h, CAS: paradoxical growth; for MIC of antifungal in combination with KKOO: MIC = <20% growth; for MIC of antifungal in combination with KKOO-NH2: MIC = well with <20% growth
Procedure: as §1, §2

C. neoformans H99 [2] = type: cell-based, Cryptococcus neoformans; details: for MIC of antifungal in combination with (FITC)KKOO / MIC of antifungal in combination with KKOO / MIC of antifungal in combination with KKOO-NH2: RPMI1640, 37 °C; for MIC of antifungal in combination with KKOO / MIC of antifungal in combination with KKOO-NH2: 48 h
C. glabrata 2001 = type: cell-based, Candida glabrata; details: RPMI1640, 37 °C, 48 h
Procedure: as §1, §2

A. fumigatus AF293 [3] = assay: microbe, parasite or virus in culture; type: cell-based, Aspergillus fumigatus; details: Aspergillus fumigatus, AF293, 48 h
C. auris B11245 = assay: microbe, parasite or virus in culture; type: cell-based, Candida auris; details: Candidozyma auris, B11245; compound alone; RPMI1640, 37 °C, 48 h; * = paradoxical growth observed (CAS); read-out: MIC
In short: as §3

Cn MRL862 = type: cell-based, Cryptococcus neoformans; details: RPMI1640, 37 °C, 48 h
Procedure: as §1, §2

C. neoformans cdc50Δ = assay: microbe, parasite or virus in culture; type: cell-based, Cryptococcus neoformans; details: Cryptococcus neoformans, 48 h
In short: as §3

C. neoformans apt4Δ = assay: microbe, parasite or virus in culture; type: cell-based, Cryptococcus neoformans; details: Cryptococcus neoformans, 48 h
In short: as §3

C. neoformans MRL862 = assay: microbe, parasite or virus in culture; type: cell-based, Cryptococcus neoformans; details: Cryptococcus neoformans, MRL862; compound alone; RPMI1640, 37 °C, 48 h; read-out: MIC
In short: as §3

C. neoformans apt1Δ = assay: microbe, parasite or virus in culture; type: cell-based, Cryptococcus neoformans; details: Cryptococcus neoformans, 48 h
In short: as §3

C. neoformans H99 [4] = assay: microbe, parasite or virus in culture; type: cell-based, Cryptococcus neoformans; details: Cryptococcus neoformans, H99, 48 h
In short: as §3

C. neoformans crm1Δ = assay: microbe, parasite or virus in culture; type: cell-based, Cryptococcus neoformans; details: Cryptococcus neoformans, 48 h
In short: as §3

C. neoformans apt2Δ = assay: microbe, parasite or virus in culture; type: cell-based, Cryptococcus neoformans; details: Cryptococcus neoformans, 48 h
In short: as §3

C. neoformans Crm1^OE = assay: microbe, parasite or virus in culture; type: cell-based, Cryptococcus neoformans; details: Cryptococcus neoformans, 48 h
In short: as §3

C. neoformans apt3Δ = assay: microbe, parasite or virus in culture; type: cell-based, Cryptococcus neoformans; details: Cryptococcus neoformans, 48 h
In short: as §3

SMILES: CCC(C)n1ncn(-c2ccc(N3CCN(c4ccc(OCC5COC(Cn6cncn6)(c6ccc(Cl)cc6Cl)O5)cc4)CC3)cc2)c1=O (centres unmarked) [ITR, itraconazole]
- MIC of antifungal in combination with KKOO (Cg FKS2 S663P; +0 μg/mL KKOO (control)): 0.031 µg/mL
- MIC of antifungal in combination with KKOO-NH2 (Cg FKS2 S663P; +0 μg/mL KKOO-NH2 (control)): 0.031 µg/mL
- MIC of antifungal in combination with KKOO-NH2 (Cg FKS2 S663P; +1 μg/mL KKOO-NH2): 0.016 µg/mL
- MIC of antifungal in combination with KKOO (Cg FKS2 S663P; +1 μg/mL KKOO): 0.016 µg/mL
- MIC of antifungal in combination with KKOO-NH2 (Cg FKS2 S663P; +2 μg/mL KKOO-NH2): 0.004 µg/mL
- MIC of antifungal in combination with KKOO (Cg FKS2 S663P; +2 μg/mL KKOO): 0.016 µg/mL
- MIC of antifungal in combination with KKOO-NH2 (Cg FKS2 S663P; +4 μg/mL KKOO-NH2): 0.002 µg/mL
- MIC of antifungal in combination with KKOO (Cg FKS2 S663P; +4 μg/mL KKOO): 0.556 µg/mL
- MIC (C. albicans SC5413): > 1 µg/mL
- MIC of antifungal in combination with KKOO (A. fumigatus AF293 [1]; +0 μg/mL KKOO (control)): 0.125 µg/mL
- MIC of antifungal in combination with KKOO-NH2 (A. fumigatus AF293 [1]; +0 μg/mL KKOO-NH2 (control)): 0.125 µg/mL
- MIC of antifungal in combination with KKOO-NH2 (A. fumigatus AF293 [1]; +1 μg/mL KKOO-NH2): 0.125 µg/mL
- MIC of antifungal in combination with KKOO (A. fumigatus AF293 [1]; +1 μg/mL KKOO): 0.125 µg/mL
- MIC of antifungal in combination with KKOO-NH2 (A. fumigatus AF293 [1]; +2 μg/mL KKOO-NH2): 0.062 µg/mL
- MIC of antifungal in combination with KKOO (A. fumigatus AF293 [1]; +2 μg/mL KKOO): 0.062 µg/mL
- MIC of antifungal in combination with KKOO-NH2 (A. fumigatus AF293 [1]; +4 μg/mL KKOO-NH2): 0.062 µg/mL
- MIC of antifungal in combination with KKOO (A. fumigatus AF293 [1]; +4 μg/mL KKOO): 0.062 µg/mL
- MIC of antifungal in combination with KKOO-NH2 (A. fumigatus AF293 [1]; +8 μg/mL KKOO-NH2): 0.031 µg/mL
- MIC of antifungal in combination with (FITC)KKOO (C. neoformans H99 [2]; +0 μg/mL (FITC)KKOO): 0.125 µg/mL
- MIC of antifungal in combination with KKOO (C. neoformans H99 [2]; +0 μg/mL KKOO (control)): 0.125 µg/mL
- MIC of antifungal in combination with KKOO-NH2 (C. neoformans H99 [2]; +0 μg/mL KKOO-NH2 (control)): 0.125 µg/mL
- MIC of antifungal in combination with KKOO-NH2 (C. neoformans H99 [2]; +1 μg/mL KKOO-NH2): 0.031 µg/mL
- MIC of antifungal in combination with KKOO (C. neoformans H99 [2]; +1 μg/mL KKOO): 0.062 µg/mL
- MIC of antifungal in combination with KKOO-NH2 (C. neoformans H99 [2]; +2 μg/mL KKOO-NH2): 0.016 µg/mL
- MIC of antifungal in combination with KKOO (C. neoformans H99 [2]; +2 μg/mL KKOO): 0.016 µg/mL
- MIC of antifungal in combination with (FITC)KKOO (C. neoformans H99 [2]; +4 μg/mL (FITC)KKOO): 0.062 µg/mL
- MIC of antifungal in combination with KKOO-NH2 (C. neoformans H99 [2]; +4 μg/mL KKOO-NH2): 0.008 µg/mL
- MIC of antifungal in combination with KKOO (C. neoformans H99 [2]; +4 μg/mL KKOO): 0.016 µg/mL
- MIC of antifungal in combination with (FITC)KKOO (C. neoformans H99 [2]; +8 μg/mL (FITC)KKOO): 0.031 µg/mL
- MIC of antifungal in combination with KKOO (C. neoformans H99 [2]; +8 μg/mL KKOO): 0.008 µg/mL
- reduction of MIC of antifungal (C. neoformans H99 [2]; in the presence of 2 μg/mL KKOO-NH2, 48 h): 8 fold
- MIC of antifungal in combination with KKOO (C. glabrata 2001; +0 μg/mL KKOO (control)): 0.5 µg/mL
- MIC of antifungal in combination with KKOO-NH2 (C. glabrata 2001; +0 μg/mL KKOO-NH2 (control)): 0.5 µg/mL
- MIC of antifungal in combination with KKOO-NH2 (C. glabrata 2001; +1 μg/mL KKOO-NH2): 0.25 µg/mL
- MIC of antifungal in combination with KKOO (C. glabrata 2001; +1 μg/mL KKOO): 0.25 µg/mL
- MIC of antifungal in combination with KKOO-NH2 (C. glabrata 2001; +2 μg/mL KKOO-NH2): 0.125 µg/mL
- MIC of antifungal in combination with KKOO (C. glabrata 2001; +2 μg/mL KKOO): 0.125 µg/mL
- MIC of antifungal in combination with KKOO-NH2 (C. glabrata 2001; +4 μg/mL KKOO-NH2): 0.031 µg/mL
- MIC of antifungal in combination with KKOO (C. glabrata 2001; +4 μg/mL KKOO): 0.062 µg/mL
- MIC of antifungal in combination with KKOO (C. glabrata 2001; +8 μg/mL KKOO): 0.062 µg/mL
- MIC (A. fumigatus AF293 [3]): 0.125 µg/mL (≈ 0.177 µM)
- MIC (C. auris B11245): 0.5 µg/mL (≈ 0.709 µM)
- MIC of antifungal in combination with KKOO (Cn MRL862; +0 μg/mL KKOO (control)): 0.062 µg/mL
- MIC of antifungal in combination with KKOO-NH2 (Cn MRL862; +0 μg/mL KKOO-NH2 (control)): 0.062 µg/mL
- MIC of antifungal in combination with KKOO-NH2 (Cn MRL862; +1 μg/mL KKOO-NH2): 0.062 µg/mL
- MIC of antifungal in combination with KKOO (Cn MRL862; +1 μg/mL KKOO): 0.031 µg/mL
- MIC of antifungal in combination with KKOO-NH2 (Cn MRL862; +2 μg/mL KKOO-NH2): 0.016 µg/mL
- MIC of antifungal in combination with KKOO (Cn MRL862; +2 μg/mL KKOO): 0.016 µg/mL
- MIC of antifungal in combination with KKOO-NH2 (Cn MRL862; +4 μg/mL KKOO-NH2): 0.004 µg/mL
- MIC of antifungal in combination with KKOO (Cn MRL862; +4 μg/mL KKOO): 0.556 µg/mL
- MIC (C. neoformans cdc50Δ): 0.002 µg/mL (≈ 0.00283 µM)
- MIC (C. neoformans apt4Δ): 0.062 µg/mL (≈ 0.0879 µM)
- MIC (C. neoformans MRL862): 0.031 µg/mL (≈ 0.0439 µM)
- MIC (C. neoformans apt1Δ): 0.5 µg/mL (≈ 0.709 µM)
- MIC (C. neoformans H99 [4]): 0.125 µg/mL (≈ 0.177 µM)
- MIC (C. neoformans crm1Δ): 0.062 µg/mL (≈ 0.0879 µM)
- MIC (C. neoformans apt2Δ): 0.125 µg/mL (≈ 0.177 µM)
- MIC (C. neoformans Crm1^OE): 0.016 µg/mL (≈ 0.0227 µM)
- MIC (C. neoformans apt3Δ): 0.062 µg/mL (≈ 0.0879 µM)
